From patent publication US6458828B1, “Deodorants, foods and beverages, and oral compositions as well as toiletry products” (Lotte Co., Ltd., priority 1999, dated 2002)

Columns and labels:
[1] = Deodorizing activity by head-space method using gas chromatography (general statements)
Source text: The resent inventors have researched on various materials to discover the effective deodorant in the head-space method using a gas chromatography.

[2] = Test 1 deodorizing effect test (head-space gas chromatography, pH 7.5); conditions: reduction ratio of methylmercaptan vs sample-free system; sample 7.5 mg/ml, pH 7.5, 25 ppm sodium methylmercaptan, 30 minutes at 37° C.
Protocol: After 1.0 ml of the sample solution and 0.5 ml of 25 ppm sodium methylmercaptan was added in a vial to shake the same for 30 minutes at 37° C., and then 200 μl of a vapor phase component in the vial was gathered. An amount of formed methylmercaptan was measured by the gas chromatography to compare the same with a sample-free system, thereby to find a reduction ratio of methylmercaptan as a deodorizing coefficient. […] The gas chromatography uses “GC-9A” commercially available from Shimazu Manufacturing Co., Ltd. The measuring conditions were described below. [table]

[3] = Gas chromatography analysis of sulfides with caramels and maltols; conditions: garlic and onion odor ingredients
Protocol: Also, in Japanese laid-open publication 62-169720, it is also disclosed that caramels and maltols (3-hydroxy-2-methyl-γ-pyrone) obtained from heating sucrose or glucose show deodorizing effect against garlic and onion odors. If, however, the odor composition was analyzed by a gas chromatography, then no change in odor composition was observed.

[4] = Test 3 deodorizing effect test against ammonia (Kitagawa detecting tube); conditions: 50 mg sample in 1.96 ml water, 40 μl ammonia solution (0.28%), 5 minutes at 37° C.
Protocol: Each of 50 mg of the palatinose-derived thermal decomposition of Example 1 and sodium copper chlorophyllin was dissolved into 1.96 ml of water in 100 ml of the vial respectively. Then, 40 μl of an ammonia solution (0.28%) was added and shaken for 5 minutes at 37° C. and 100 ml of the vapor phase component in the vial was measured under a vacuum pressure by use of a Kitagawa detecting tube (ammonia No.3). The deodorizing rate of each sample was calculated from the concentration of ammonia in case of addition of no sample.

OC[C@H]1O[C@H](OC[C@H]2OC(O)(CO)[C@@H](O)[C@@H]2O)[C@H](O)[C@@H](O)[C@@H]1O (some centres unmarked) [Palatinose, palatinose]
deodorizing activity / effect against methyl mercaptan (in words) [1]: does not provide such the effect
Deodorant coefficient (%) [2]: 0.0%

OC[C@H]1O[C@@](CO)(O[C@H]2O[C@H](CO)[C@@H](O)[C@H](O)[C@H]2O)[C@@H](O)[C@@H]1O [Sucrose, sucrose]
Deodorant coefficient (%) [2]: 0.0%

Cc1occc(=O)c1O [maltols, 3-hydroxy-2-methyl-γ-pyrone]
change in composition of sulfides (methyl marcaptan, allyl marcaptan) by gas chromatography [3]: no change in the composition was observed

sodium copper chlorophyllin
Rate of deodorizing (%) [4]: 9.2%
